How the values were obtained:
[1] = test system: A/WS/33; experiment: 3-day CP assay in MDCK cells; format: cell-based; conditions: Influenza A virus
[2] = test system: A/NWS/33; experiment: 3-day CP assay in MDCK cells; format: cell-based, influenza A; conditions: Influenza A virus, MDCK
[3] = test system: A/Puerto Rico/8/34; experiment: 3-day CP assay in MDCK cells; format: cell-based; conditions: Influenza A virus
[4] = test system: A/Weiss/43; experiment: 3-day CP assay in MDCK cells; format: cell-based; conditions: Influenza A virus
[5] = test system: A/FM/1/47; experiment: 3-day CP assay in MDCK cells; format: cell-based; conditions: Influenza A virus
[6] = test system: A/Mal/302/54; experiment: 3-day CP assay in MDCK cells; format: cell-based; conditions: Influenza A virus
[7] = test system: A/Denver/1/57; experiment: 3-day CP assay in MDCK cells; format: cell-based; conditions: Influenza A virus
[8] = test system: A/Aichi/2/68; experiment: 3-day CP assay in MDCK cells; format: cell-based; conditions: Influenza A virus
[9] = test system: A/Hong Kong/8/68; experiment: 3-day CP assay in MDCK cells; format: cell-based; conditions: Influenza A virus
[10] = test system: A/Port Chalmers/1/73; experiment: 3-day CP assay in MDCK cells; format: cell-based; conditions: Influenza A virus
[11] = test system: A/Victoria/3/75; experiment: 3-day CP assay in MDCK cells; format: cell-based; conditions: Influenza A virus
[12] = test system: A/New Jersey/8/76; experiment: microbe, parasite or virus in culture; format: cell-based; conditions: Influenza A virus, MDCK
[13] = test system: A/Wisconsin/67/2005; experiment: 3-day CP assay in MDCK cells; format: cell-based; conditions: Influenza A virus
[14] = test system: A/Chelyabinsk/1/200; experiment: 3-day CP assay in MDCK cells; format: cell-based; conditions: Influenza A virus
[15] = test system: A/Fukushima/141/2006; experiment: 3-day CP assay in MDCK cells; format: cell-based; conditions: Influenza A virus
[16] = test system: A/Georgia/17/2006; experiment: 3-day CP assay in MDCK cells; format: cell-based; conditions: Influenza A virus
[17] = test system: A/Georgia/20/2006; experiment: 3-day CP assay in MDCK cells; format: cell-based, influenza A; conditions: Influenza A virus, MDCK
[18] = test system: A/Hawaii/2/2006; experiment: 3-day CP assay in MDCK cells; format: cell-based; conditions: Influenza A virus
[19] = test system: A/Missouri/3/2006; experiment: 3-day CP assay in MDCK cells; format: cell-based; conditions: Influenza A virus
[20] = test system: A/Nebraska/1/2006; experiment: 3-day CP assay in MDCK cells; format: cell-based; conditions: Influenza A virus
[21] = test system: A/Santiago/7981/2006; experiment: 3-day CP assay in MDCK cells; format: cell-based; conditions: Influenza A virus
[22] = test system: A/St. Petersburg8/2006; experiment: 3-day CP assay in MDCK cells; format: cell-based; conditions: Influenza A virus
[23] = test system: A/Virginia/01/2006; experiment: 3-day CP assay in MDCK cells; format: cell-based; conditions: Influenza A virus
[24] = test system: A/Cambodia0371/2007; experiment: 3-day CP assay in MDCK cells; format: cell-based; conditions: Influenza A virus
[25] = test system: A/Henan/Jinshui/147/2007; experiment: 3-day CP assay in MDCK cells; format: cell-based; conditions: Influenza A virus
[26] = test system: A/South Dakota/6/2007; experiment: 3-day CP assay in MDCK cells; format: cell-based; conditions: Influenza A virus
[27] = test system: A/Texas/12/2007; experiment: 3-day CP assay in MDCK cells; format: cell-based; conditions: Influenza A virus
[28] = test system: A/Uruguay/716/2007; experiment: 3-day CP assay in MDCK cells; format: cell-based; conditions: Influenza A virus
[29] = test system: A/California/07/2009; experiment: 3-day CP assay in MDCK cells; format: cell-based; conditions: Influenza A virus, MDCK; A/California/07/2009
[30] = test system: A/California/07/2009 NYMC, X-179A; experiment: 3-day CP assay in MDCK cells; format: cell-based; conditions: Influenza A virus
[31] = test system: A/Mexico/4108/2009; experiment: 3-day CP assay in MDCK cells; format: cell-based; conditions: Influenza A virus
[32] = test system: A/New York/18/2009; experiment: 3-day CP assay in MDCK cells; format: cell-based; conditions: Influenza A virus
[33] = test system: A/Texas/48/2009; experiment: 3-day CP assay in MDCK cells; format: cell-based; conditions: Influenza A virus
[34] = test system: A/Virginia/ATCC2/2009; experiment: 3-day CP assay in MDCK cells; format: cell-based; conditions: Influenza A virus
[35] = test system: A/Virginia/ATCC3/2009; experiment: 3-day CP assay in MDCK cells; format: cell-based; conditions: Influenza A virus
[36] = test system: A/Swine/Iowa/15/30; experiment: microbe, parasite or virus in culture; format: cell-based, influenza A; conditions: Influenza A virus, MDCK, in Sus scrofa
[37] = test system: A/Swine/1976/31; experiment: microbe, parasite or virus in culture; format: cell-based; conditions: Influenza A virus, MDCK, in Sus scrofa
[38] = test system: A/Equine/Miami/63; experiment: microbe, parasite or virus in culture; format: cell-based; conditions: Influenza A virus, MDCK
[39] = test system: B/Lee/40; experiment: 3-day CP assay in MDCK cells; format: cell-based; conditions: Influenza B virus
[40] = test system: B/Mass/3/66; experiment: 3-day CP assay in MDCK cells; format: cell-based; conditions: Influenza B virus
[41] = test system: B/Russia/69; experiment: 3-day CP assay in MDCK cells; format: cell-based; conditions: Influenza B virus
[42] = test system: B/Memphis/20/1996--070; experiment: 3-day CP assay in MDCK cells; format: cell-based; conditions: Influenza B virus
[43] = test system: B/Memphis/20/1996--071; experiment: 3-day CP assay in MDCK cells; format: cell-based; conditions: Influenza B virus

Compound: NC(=O)c1nc(F)c[nH]c1=O [Compound T-705, favipiravir]
- EC50 [1]: > 10 µM
- EC50 [2]: 7.6 µM
- EC50 [3]: > 10 µM
- EC50 [4]: 1.5 µM
- EC50 [5]: 4.5 µM
- EC50 [6]: 3.4 µM
- EC50 [7]: 1.1 µM
- EC50 [8]: > 10 µM
- EC50 [9]: 4.5 µM
- EC50 [10]: 1.9 µM
- EC50 [11]: > 10 µM
- EC50 [12]: 2.1 µM
- EC50 [13]: > 10 µM
- EC50 [14]: 6.5 µM
- EC50 [15]: 1.9 µM
- EC50 [16]: 9.6 µM
- EC50 [17]: 6.3 µM
- EC50 [18]: 5.5 µM
- EC50 [19]: 5.3 µM
- EC50 [20]: 6.4 µM
- EC50 [21]: 0.86 µM
- EC50 [22]: > 10 µM
- EC50 [23]: 3.1 µM
- EC50 [24]: 6.5 µM
- EC50 [25]: 6.1 µM
- EC50 [26]: 7.1 µM
- EC50 [27]: 7.1 µM
- EC50 [28]: 4.5 µM
- EC50 [29]: 2 µM
- EC50 [30]: > 10 µM
- EC50 [31]: > 10 µM
- EC50 [32]: 1.3 µM
- EC50 [33]: 9.3 µM
- EC50 [34]: 5.3 µM
- EC50 [35]: 7.7 µM
- EC50 [36]: > 10 µM
- EC50 [37]: > 10 µM
- EC50 [38]: > 10 µM
- EC50 [39]: 6.5 µM
- EC50 [40]: 3.4 µM
- EC50 [41]: 0.29 µM
- EC50 [42]: 2.4 µM
- EC50 [43]: > 10 µM

Compound: CC(=O)N[C@H]1[C@H]([C@H](O)[C@H](O)CO)OC(C(=O)O)=C[C@@H]1N=C(N)N [Zanamivir]
- EC50 [1]: > 10 µM
- EC50 [2]: > 10 µM
- EC50 [3]: > 10 µM
- EC50 [4]: 0.08 µM
- EC50 [5]: 2.6 µM
- EC50 [6]: 0.28 µM
- EC50 [7]: > 10 µM
- EC50 [8]: > 10 µM
- EC50 [9]: 0.15 µM
- EC50 [10]: 0.67 µM
- EC50 [11]: 4.1 µM
- EC50 [12]: 6.2 µM
- EC50 [13]: 0.16 µM
- EC50 [14]: 7.6 µM
- EC50 [15]: 0.27 µM
- EC50 [16]: > 10 µM
- EC50 [17]: 4.3 µM
- EC50 [18]: > 10 µM
- EC50 [19]: 3.6 µM
- EC50 [20]: > 10 µM
- EC50 [21]: 4 µM
- EC50 [22]: 6 µM
- EC50 [23]: 0.83 µM
- EC50 [24]: 2.1 µM
- EC50 [25]: > 10 µM
- EC50 [26]: 3.4 µM
- EC50 [27]: 8.2 µM
- EC50 [28]: 4.7 µM
- EC50 [29]: > 10 µM
- EC50 [30]: 5.6 µM
- EC50 [31]: 3.8 µM
- EC50 [32]: 0.31 µM
- EC50 [33]: 1.7 µM
- EC50 [34]: > 10 µM
- EC50 [35]: > 10 µM
- EC50 [36]: 1.8 µM
- EC50 [37]: 0.25 µM
- EC50 [38]: 0.93 µM
- EC50 [39]: > 10 µM
- EC50 [41]: 3.1 µM
- EC50 [42]: 2.6 µM
- EC50 [43]: 6 µM

— patent publication US10273233B2, “Inhibitors of influenza viruses replication” (Vertex Pharmaceuticals Incorporated, priority 2015, dated 2019)
